# Patent US5385842A, “Anthraquinones as inhibitors of sulfide production from sulfate-reducing bacteria” (E. I. Du Pont de Nemours and Company, priority 1993, dated 1995)
# Legend:
# Desulfovibrio gigas = test: Sulfide production by resting cells of D. gigas; assay type: cell-based
# Description: Experiments in this example were carried out using resting cells of Desulfovibrio gigas rather than growing cells as was the case for the autoanalyzer system employing the Desulfovibrio desulfuricans G100A strain. […] Thus the experiment examined a different organism, different test system, and a different physiological state for the phenomenon of anthraquinone inhibition of sulfide production by Desulfovibrio sp. Active compounds, as determined by the autoanalyzer, were evaluated in comparison with four additional compounds not evaluated in the autoanalyzer.
# 500 ml cultures of Desulfovibrio gigas were grown on standard BTZ-3 medium as previously described in Example 1 with 30 mM sodium lactate, 30 mM sodium sulfate and 30 mM sodium fumarate. The culture was harvested after 24 h of growth at 31° C. by centrifugation at 8000 rpm in a GSA Sorvall rotor for 20 minutes. The cell pellet was resuspended in 30 ml of incubation assay mixture of the following composition: 50 mM HEPES buffer pH 7 buffer, 2.5 mM sodium lactate, 2.5 mM sodium sulfate. This suspension was centrifuged again at 10,000 rpm in a Sorvall SS-34 rotor for 5 minutes. The resulting cell pellet was resuspended in 5 ml of incubation assay buffer. Cell densities were generally near 10e10 cells/mi.
# The samples were assayed for production in the presence of anthraquinones. 200 ul of the cell suspension was added to 1.2 ml of incubation assay mixture in a 5 ml capacity test tube. The tube was gassed with hydrogen gas for 20 minutes then the anthraquinones were added as ethanolic solutions, the tubes were then gassed with hydrogen again for 5 minutes. The reaction mixtures were then incubated for 3 hours at 31° C. The reactions were stopped by the addition of 200 ul of 1N sodium hydroxide. After 20 minutes the alkaline mixtures were centrifuged in a table top microfuge for 4 minutes at 14,000 rpm to remove cells and cell debris. The supernatant was then assayed for sulfide using the ferric chloride-DPD reagent system as described by Siegel et al., Anal. Blochem., 11:126-132, 1965, herein incorporated by reference.
# [1] = tested on: B. aureus, B. subtilis, B. stearothermophilus and S. aureus; details: background art; cited from earlier work
# [2] = tested on: Escherichia coli strain MC106; test: Aerobic and anaerobic growth of Escherichia coli; assay type: cell-based; details: 5 ppm
# Description: Another non-sulfate reducing organism, Escherichia coli strain MC106 was grown under aerobic conditions on BTZ-3 with 30 mM sodium succinate as sole carbon and electron source with oxygen as electron acceptor or under anaerobic conditions with hydrogen (80% as electron donor) and carbon dioxide (20%) as gas phase and sodium fumarate (30 mM) as electron acceptor. Both media contained 0.2% yeast extract.
# Aerobic growth with succinate refers to growth on succinate as a carbon and electron source and oxygen as an electron acceptor. Anaerobic growth under hydrogen/carbon dioxide refers to growth with hydrogen as an electron donor and fumarate as an electron acceptor.
# [3] = tested on: Desulfovibrio desulfuricans G100A; test: microbe, parasite or virus in culture; assay type: cell-based; details: Desulfovibrio desulfuricans, G100A, read-out: % Inhib. (inhibition of sulfide production)
# D. salexigens = test: Growth of different sulfate-reducers with 1,8-dihydroxyanthraquinone (Example 8); assay type: cell-based; details: 3 ppm, 40 hours; control >1.5
# Description: (§1) Growth was monitored as optical density at 660 nm for 40 hours.
# D. vulgaris = test: Growth of different sulfate-reducers with 1,8-dihydroxyanthraquinone (Example 10); assay type: cell-based; details: 3 ppm, 40 hours; control .20
# Description: as §1
# [4] = tested on: D. desulfuricans #ATCC27774; test: Rate of hydrogen utilization in the presence of different electron acceptors; assay type: cell-based
# Text: The following experiments show the effect of the 1,8-dihydroxy-anthraquinone on the rate of hydrogen utilization by bacteria in the presence of different electron acceptors.
# [5] = tested on: Thiobacillus denitrificans; test: Growth of Thiobacillus denitrificans; assay type: cell-based
# Description: Thiobacillus denitrificans was grown on BTZ-3 medium as defined in Example 1 (supplemented with reducing agent) and with 30 mM sodium nitrate plus 30 mM sodium thiosulfate. Cultures were anaerobic under a nitrogen atmosphere. Thus growth conditions mimicked those for the sulfate-reducingbacteria as closely as possible. […]
# D. desulfuricans G100A = test: Growth of different sulfate-reducers with 1,8-dihydroxyanthraquinone (Example 6); assay type: cell-based; details: 3 ppm, 40 hours; control >1.5
# Description: as §1
# [6] = tested on: D. desulfuricans strain G100A; test: Growth by pyruvate fermentation in the absence of sulfate; assay type: cell-based
# Description: D. desulfuricans strain G100A was grown using pyruvate fermentation in the absence of sulfate.
# D. desulfuricans Norway = test: Growth of different sulfate-reducers with 1,8-dihydroxyanthraquinone (Example 7); assay type: cell-based; details: 3 ppm, 40 hours; control .30
# Description: as §1
smiles,measurement,setting,value
"O=C1c2cccc(O)c2C(=O)c2c(O)cccc21 [1,8-Dihydroxyanthraquinone]",activity at 0.1 ppm,"Desulfovibrio gigas; Desulfovibrio, 0.1 ppm, 3 hours at 31° C.",101%
same,activity at 0.5 ppm,"Desulfovibrio gigas; Desulfovibrio, 0.5 ppm, 3 hours at 31° C.",51%
same,activity at 2 ppm,"Desulfovibrio gigas; Desulfovibrio, 2 ppm, 3 hours at 31° C.",4%
same,activity at 5 ppm,"Desulfovibrio gigas; Desulfovibrio, 5 ppm, 3 hours at 31° C.",2.3%
same,inhibition of sulfide production (in words),Desulfovibrio gigas; resting cells,inhibitory properties
same,antibacterial activity (in words),[1],inactive
same,inhibition of aerobic or anaerobic growth (in words),[2],virtually no inhibition
same,Optical Density @ 660 nm,"[2]; aerobic growth with succinate, 0 h, control 0.01",0.01
same,Optical Density @ 660 nm,"[2]; aerobic growth with succinate, 5.5 h, control 0.17",0.24
same,Optical Density @ 660 nm,"[2]; aerobic growth with succinate, 6.5 h, control 0.37",0.39
same,Optical Density @ 660 nm,"[2]; aerobic growth with succinate, 7.5 h, control 0.38",0.40
same,Optical Density @ 660 nm,"[2]; aerobic growth with succinate, 24 h, control 1.50",1.50
same,Optical Density @ 660 nm,"[2]; anaerobic growth under hydrogen/carbon dioxide, 0 h, control 0.0",0.01
same,Optical Density @ 660 nm,"[2]; anaerobic growth under hydrogen/carbon dioxide, 3.5 h, control 0.30",0.29
same,Optical Density @ 660 nm,"[2]; anaerobic growth under hydrogen/carbon dioxide, 4.5 h, control 0.45",0.62
same,Optical Density @ 660 nm,"[2]; anaerobic growth under hydrogen/carbon dioxide, 5.5 h, control 0.61",0.79
same,Optical Density @ 660 nm,"[2]; anaerobic growth under hydrogen/carbon dioxide, 6.0 h, control 0.75",0.87
same,inhibition at 10 ppm,[3],82.2%
same,"Optical Density @ 660 nm, treated",D. salexigens,.06
same,"Optical Density @ 660 nm, treated",D. vulgaris,.05
same,Hydrogen,"[4]; Fumarate as electron acceptor, 3 ppm, 0 min, control 0",0 µL
same,Hydrogen,"[4]; Fumarate as electron acceptor, 3 ppm, 10 min, control 9",8 µL
same,Hydrogen,"[4]; Fumarate as electron acceptor, 3 ppm, 25 min, control 23",25 µL
same,Hydrogen,"[4]; Fumarate as electron acceptor, 3 ppm, 40 min, control 47",48 µL
same,Hydrogen,"[4]; Fumarate as electron acceptor, 3 ppm, 55 min, control 70",74 µL
same,Hydrogen,"[4]; Fumarate as electron acceptor, 3 ppm, 70 min, control 95",101 µL
same,Hydrogen,"[4]; Sulfate as electron acceptor, 3 ppm, 0 min, control 0",0 µL
same,Hydrogen,"[4]; Sulfate as electron acceptor, 3 ppm, 10 min, control 15",3 µL
same,Hydrogen,"[4]; Sulfate as electron acceptor, 3 ppm, 25 min, control 44",14 µL
same,Hydrogen,"[4]; Sulfate as electron acceptor, 3 ppm, 40 min, control 76",21 µL
same,Hydrogen,"[4]; Sulfate as electron acceptor, 3 ppm, 55 min, control 107",28 µL
same,Hydrogen,"[4]; Sulfate as electron acceptor, 3 ppm, 70 min, control 152",38 µL
same,Hydrogen,"[4]; Sulfate as electron acceptor, 3 ppm, 85 min, control 208",45 µL
same,Hydrogen,"[4]; Sulfate as electron acceptor, 3 ppm, 100 min, control 266",56 µL
same,Hydrogen,"[4]; Sulfate as electron acceptor, 3 ppm, 115 min, control 336",74 µL
same,Hydrogen,"[4]; Sulfite as electron acceptor, 3 ppm, 0 min, control 0",0 µL
same,Hydrogen,"[4]; Sulfite as electron acceptor, 3 ppm, 6 min, control 7",7 µL
same,Hydrogen,"[4]; Sulfite as electron acceptor, 3 ppm, 16 min, control 26",25 µL
same,Hydrogen,"[4]; Sulfite as electron acceptor, 3 ppm, 26 min, control 45",43 µL
same,Hydrogen,"[4]; Sulfite as electron acceptor, 3 ppm, 59 min, control 139",141 µL
same,Hydrogen,"[4]; Sulfite as electron acceptor, 3 ppm, 71 min, control 179",183 µL
same,Hydrogen,"[4]; Thiosulfate as electron acceptor, +6 ppm, 0 min, control 0",0 µL
same,Hydrogen,"[4]; Thiosulfate as electron acceptor, +6 ppm, 11 min, control 38",33 µL
same,Hydrogen,"[4]; Thiosulfate as electron acceptor, +6 ppm, 21 min, control 90",73 µL
same,Hydrogen,"[4]; Thiosulfate as electron acceptor, +6 ppm, 31 min, control 144",118 µL
same,Hydrogen,"[4]; Thiosulfate as electron acceptor, +6 ppm, 41 min, control 204",176 µL
same,Optical Density @ 660 nm,"[5]; 0 h of growth, before addition of 3 ppm at 19 h, control .02",.0
same,effect on growth (in words),[5]; 3 ppm,no effect on the growth of T. denitrificans
same,Optical Density @ 660 nm,"[5]; 12 h of growth, before addition of 3 ppm at 19 h, control .06",.06
same,Optical Density @ 660 nm,"[5]; 15 h of growth, before addition of 3 ppm at 19 h, control .08",.08
same,Optical Density @ 660 nm,"[5]; 19 h of growth, time of addition of 3 ppm, control .09",.09
same,Optical Density @ 660 nm,"[5]; 34 h of growth, 3 ppm added at 19 h, control .22",.22
same,Optical Density @ 660 nm,"[5]; 36 h of growth, 3 ppm added at 19 h, control .29",.25
same,Optical Density @ 660 nm,"[5]; 38 h of growth, 3 ppm added at 19 h, control .32",.27
same,Optical Density @ 660 nm,"[5]; 43 h of growth, 3 ppm added at 19 h, control .40",.32
same,Optical Density @ 660 nm,"[5]; 55 h of growth, 3 ppm added at 19 h, control 1.5",1.5
same,"Optical Density @ 660 nm, treated",D. desulfuricans G100A,.20
same,Optical Density @ 660 nm,"[6]; 0 h, before addition of 3 ppm at 6.5 h, control .11",.1
same,effect on fermentative growth (in words),[6]; 3 ppm,did not affect fermentative growth
same,Optical Density @ 660 nm,"[6]; 2 h, before addition of 3 ppm at 6.5 h, control .12",.12
same,Optical Density @ 660 nm,"[6]; 3.5 h, before addition of 3 ppm at 6.5 h, control .14",.14
same,Optical Density @ 660 nm,"[6]; 6.5 h, time of addition of 3 ppm, control .15",.16
same,Optical Density @ 660 nm,"[6]; 8.5 h, 3 ppm added at 6.5 h, control .18",.16
same,Optical Density @ 660 nm,"[6]; 10.7 h, 3 ppm added at 6.5 h, control .19",.17
same,Optical Density @ 660 nm,"[6]; 25 h, 3 ppm added at 6.5 h, control .26",.22
same,Optical Density @ 660 nm,"[6]; 32 h, 3 ppm added at 6.5 h, control .37",.34
same,Optical Density @ 660 nm,"[6]; 45 h, 3 ppm added at 6.5 h, control .46",.45
same,"Optical Density @ 660 nm, treated",D. desulfuricans Norway,.09
